Several values for one entry are separate records, joined by “and”; a condition that tells them apart may be missing. Equal entries are not always repeated. Entries after “also recorded” stand apart in the source; their conditions may differ. Where two headings read alike, the source gives them in different places. Marks after values point to notes of the source that are not given here.
Tests used:
3α4:2β2 nAChR [1] = biological target: T1, 3α4:2β2 nAChR (Homo sapiens, UniProt P17787+P43681); test: Two-electrode voltage-clamp electrophysiology in Xenopus oocytes, WT 3α4:2β2 receptor; format: cell-based; parameters: expressed in transfected cells; host or cells: Xenopus laevis oocytes injected with cRNA (α4:β2 ratio 4:1); settings: for Est Pomax: normalized to 1 mM ACh + NS206 (10 μM); for Decrease of EC50 value by co-application of NS9283 / Increase of maximum response by co-application of NS9283: 3α4:2β2, NS9283 10 μM; for Agonist type: 3α4:2β2, relative to saturating ACh (1 mM)
Method: (§1) cDNA encoding human nAChR α4 and β2 subunits were cloned, and cRNA was prepared as previously described. A triple-point-mutated β2^m subunit with the mutations V136H, F144Q, and L146T was constructed as previously described.
(§2) This study was carried out in strict accordance with the Australian Code of Practice for the Care and Use of Animals for Scientific Purposes. The protocol for this specific study was approved by the Animal Ethics Committee of the University of Sydney (Protocol number: 2013/5915). All surgical procedures were carried out in under anesthesia induced by immersion in a tricaine solution to ameliorate suffering. […] Mature female Xenopus laevis frogs were anaesthetised with 0.17% tricaine (buffered with 0.06% sodium bicarbonate) for 15 minutes, after which the loss of righting reflex was confirmed before transferring on to ice where surgeries were performed. A small (1–2 cm) abdominal incision was made through both the skin and muscle layer with surgical knives. Ovary lobes were removed with a pair of forceps, and kept in oocyte releasing 2 (OR2) buffer (82.5 mM NaCl, 2 mM KCl, 1 mM MgCl2, 5 mM HEPES hemisodium; pH 7.4). The skin and muscle layer were sutured separately, and frogs were allowed to recover for six months before they were reselected for surgeries. A total of five recoverable surgeries with 6–12 months recovery periods between surgeries were performed on each frog to reduce the adverse effects of Xenopus transportation into Australia, as approved by the Animal Ethics Committee of the University of Sydney (Protocol number: 2013/5915) before a terminal surgery was performed, in which a lethal dose of tricaine (0.5%) was used. Briefly, lobes from ovaries of female adult X. laevis were removed and defolliculated to obtain isolated oocytes. Oocytes were injected with a total of ∼25 ng of cRNA encoding human WT receptor as shown earlier to express 3α4:2β2 and 2α4:3β2 [17], and incubated for 2–5 days at 15–18°C.
(§3) Oocytes were subjected to two-electrode voltage-clamp electrophysiological testing using a custom-built system where solutions were applied directly to the oocytes via a glass capillary tube placed in the vicinity of the cell. This ensured a solution exchange rate faster than two seconds. Ligand was applied for 30 sec and peak current amplitudes were measured. To minimise the effects of long desensitized states, the number of applications of ligand at each oocyte was minimized rather than performing full concentration-response curves on individual oocytes.
(§4) Concentration–response curves for Sazetidine-A and TC-2559 were fitted using GraphPad Prism 6 to a monophasic Hill equation with Hill Slope of 1: I=Imax(1/1+(EC50/A)) Where Imax is the maximum current, EC50 is the concentration that produces the half-maximal response and [A] is the concentration of ligand.
Concentration–response curves for ACh were fitted using GraphPad Prism 6 to a biphasic Hill equation with Hill slopes of 1: I=Imax*((Frac1/1+(EC50(1)/[A]))+(Frac2/1+(EC50(2)/[A]))) Where Frac1 and Frac2 are the fractions and EC50(1) and EC50(2) are the half-maximal concentrations of high and low-sensitivity phases of the concentration-response curves, respectively.
Ideally, single-channel recordings would be used to estimate the Po,max values; however this is technically highly challenging for α4β2 nAChRs due to channel rundown and desensitization. To overcome this, an alternate method utilizing co-application of ACh and NS206, a positive allosteric modulator (PAM), was used to estimate the maximum open probability (Est. Po,max) at 3α4:2β2 receptors. […] We have assumed that when both the positive allosteric modulator and native ligand ACh are bound, the probability of the receptor being opened is approaching one, and was previously successfully used for other members of LGICs.

3α4:2β2 nAChR [2] = biological target: T1, 3α4:2β2 nAChR; parameters: expressed in transfected cells; host or cells: Xenopus laevis oocytes injected with cRNA (α4:β2 ratio 4:1); method as in PMID 16720757, PMID 21795528; settings: 3α4:2β2 stoichiometry; cited from earlier work
3α4:2β2 nAChR [3] = biological target: T1, 3α4:2β2 nAChR; test: Linear kinetic models (Model 1, Model 2) of 3α4:2β2 receptor activation; settings: for Constant multiplier C (CE / CF): from change in EC50 and Po,max when NS9283 (10 μM) applied in addition to the agonist
Source text: To determine how binding at the α4-α4 site alters receptor transitions during activation, two simple linear kinetic models were used to describe receptor activation when two α4-β2 binding sites are occupied. For simplicity the binding of two ligands at α4-β2 sites is combined into a single step. The first model (Model 1) is a three-step model designed to determine whether the third ligand alters: (i) the binding affinity of ligands at the α4-β2 site (cooperativity); (ii) the transitions between closed and open states (gating) or (iii) the transitions between open and a distinct closed state in the presence of ligand (desensitization). The second model (Model 2) expanded the gating transitions to investigate whether a pre-activation (flipping) step is altered. We then determined which equilibrium constant was principally modulated in these models when NS9283 bound to the α4-α4 site potentiated the Saz-A or TC-2559 responses.
The open probability for the first model is given by (Fig 4A): PoCtrl=E.[A]/K+[A](1+E+E.D) (1) Where E is the gating constant, [A] is the agonist concentration, K is the dissociation constant of Saz-A or TC-2559, and D is the desensitizing constant. By rearranging Eq 1 to isolate [A]: PoCtrl=E/1+E+E.D/1+K/[A].(1+E+E.D) (2)
The open probability curve will fit to a Hill equation with a slope coefficient of one, since the ligand binding steps have been simplified by aggregating into a single transition. It follows from Eq 2 that the maximum open probability (when [A] approaches infinity) is given by: Po,maxCtrl=E/1+E+E.D (3) and the half-maximum effective concentration is: EC50Ctrl=K/1+E+E.D (4) It is apparent from Eq 3 that to determine the equilibrium constants for this kinetic model, the open probability (Po) of the receptor must be estimated by normalizing to the responses to ACh and NS206, rather than normalizing to the response of a saturating concentration of ACh.
The open probability in the presence of NS9283 ( Po.maxNS ; the superscript denotes when NS9283 is co-applied) and half-maximum effective concentration ( EC50NS ) can be described by substituting E with CE.E in Eqs 3 and 4 respectively. The value of CE can then be calculated from the ratios of the EC50 values and the maximum open probabilities in control and when potentiated by NS9283, as follows: EC50ctrl/Po,maxctrl=K/E (5) EC50NS/Po,maxNS=K/CE.E (6) CE=Po,maxNS/Po,maxctrl×EC50ctrl/EC50NS (7)
As NS9283 binds selectively to the α4-α4 site, we assumed that it has the same multiplier effect; regardless of which partial agonist is bound at the α4-β2 site. […] Equilibrium constants were then calculated using the following equations. Rearranging Eq 3: 1/Po.maxCtrl−1=1+D.E/E (8)
Rearranging to give D. D=CE(1/Po,maxNS−1)−(1/Po,maxctrl−1)/CE−1 (11)
Rearranging Eq 3 to give E. E=Po,maxctrl/(1−Po,maxctrl−D.Po,maxctrl) (12)
Rearranging Eqs 5 and 6 to give K K=E.EC50ctrl/Po,maxctrl=CE.E.EC50NS/Po,maxNS (13)
The open probability for this model is given by the following: Po=E.F.[A]/K+[A](1+F+E.F) (17)
Where K is the dissociation constant, F is the pre-activating equilibrium constant and E is the gating constant. It also follows that the maximum open probability is given by: Po,max=E.F/1+F+E.F (18)
Thus, both F and E will have an influence on the observed macroscopic efficacy. The half-maximum effective concentration is: EC50=K/1+F+E.F (19)
We investigated the possibility that NS9283 increases the pre-activation constant, F, by a factor, CF, in Model 2 (Fig 5B; Scheme 2).
By subtracting Eq 21 from Eq 22 and re-arranging in terms of E: E=CF−1/CF(1/Po,maxNS−1)−(1/Po,maxctrl−1) (23)
The value of E can then be calculated using Eq 23.
2α4:3β2 nAChR = biological target: T2, 2α4:3β2 nAChR (Homo sapiens, UniProt P17787+P43681); test: Two-electrode voltage-clamp electrophysiology in Xenopus oocytes, WT 2α4:3β2 receptor; format: cell-based; settings: for Agonist type: 2α4:3β2, relative to saturating ACh (1 mM)
T2 construct: expressed in transfected cells; host or cells: Xenopus laevis oocytes injected with cRNA (α4:β2 ratio 1:4)
Method: as §1, §2, §3, §4

[4] = system: T3, 3α4:2β2^HQT nAChR (β2 V136H, F144Q, L146T); test: Two-electrode voltage-clamp electrophysiology in Xenopus oocytes, mutated 3α4:2β2^HQT receptor; format: cell-based, human; settings: for I/I1mM ACh: 3α4:2β2^HQT; for Activation of 3α4:2β2^HQT mutant receptors: receptor with three α4-α4-like interfaces
T3 construct: expressed in transfected cells; host or cells: Xenopus laevis oocytes injected with cRNA
Method: as §1, §2, §3
Nevertheless, a contribution to Saz-A and TC-2559 activation from binding at the α4-α4 interface cannot be excluded from these experiments. Therefore, Saz-A and TC-2559 were applied to mutated 3α4:2β2^HQT receptors where the α4-β2 binding site is abolished. […]

[5] = read-out: K (binding equilibrium constant), Model-1, Model 1, 3α4:2β2
[6] = read-out: K (binding equilibrium constant), Model-2, Model 2, 3α4:2β2
[7] = 3α4:2β2, co-applied with NS9283 (10 μM)

T2 sequence (P43681 29-627 limits assumed): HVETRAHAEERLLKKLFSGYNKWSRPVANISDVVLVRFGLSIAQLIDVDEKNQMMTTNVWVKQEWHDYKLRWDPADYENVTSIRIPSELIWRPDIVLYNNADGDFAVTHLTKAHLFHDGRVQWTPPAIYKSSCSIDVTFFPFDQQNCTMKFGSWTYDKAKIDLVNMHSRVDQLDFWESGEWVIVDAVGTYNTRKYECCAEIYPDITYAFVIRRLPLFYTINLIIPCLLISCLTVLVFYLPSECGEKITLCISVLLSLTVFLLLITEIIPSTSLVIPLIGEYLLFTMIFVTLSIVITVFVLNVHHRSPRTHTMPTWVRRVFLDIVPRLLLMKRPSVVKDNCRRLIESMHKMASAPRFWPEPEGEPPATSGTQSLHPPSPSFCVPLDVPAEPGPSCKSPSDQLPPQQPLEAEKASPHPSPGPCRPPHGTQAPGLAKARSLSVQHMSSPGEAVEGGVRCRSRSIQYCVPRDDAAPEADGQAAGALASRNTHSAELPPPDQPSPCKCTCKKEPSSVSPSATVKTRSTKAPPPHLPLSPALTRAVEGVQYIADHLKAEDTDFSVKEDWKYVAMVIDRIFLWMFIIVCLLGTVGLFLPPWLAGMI
T2 sequence (P17787 26-502): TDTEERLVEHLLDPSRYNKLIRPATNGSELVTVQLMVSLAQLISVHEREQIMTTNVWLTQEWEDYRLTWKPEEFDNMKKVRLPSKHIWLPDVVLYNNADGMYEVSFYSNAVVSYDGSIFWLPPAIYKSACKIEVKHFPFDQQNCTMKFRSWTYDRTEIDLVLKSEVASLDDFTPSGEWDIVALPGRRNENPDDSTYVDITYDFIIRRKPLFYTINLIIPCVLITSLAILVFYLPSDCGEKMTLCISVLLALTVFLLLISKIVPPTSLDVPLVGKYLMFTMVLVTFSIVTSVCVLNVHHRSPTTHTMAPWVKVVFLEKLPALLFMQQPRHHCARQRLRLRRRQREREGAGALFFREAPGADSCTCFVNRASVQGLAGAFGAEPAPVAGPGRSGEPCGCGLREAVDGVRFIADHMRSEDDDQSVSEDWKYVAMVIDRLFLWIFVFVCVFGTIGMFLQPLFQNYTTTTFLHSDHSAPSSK
T1 sequence (P43681 29-627 limits assumed): as the sequence (P43681 29-627 limits assumed) above
T1 sequence (P17787 26-502): as the sequence (P17787 26-502) above

Row | SMILES | Est Pomax (3α4:2β2 nAChR [1]; 3α4:2β2, ligand alone) | D (desensitized equilibrium constant), Model-1 (3α4:2β2 nAChR [3]; Model 1, 3α4:2β2) | E (gating equilibrium constant), Model-1 (3α4:2β2 nAChR [3]; Model 1, 3α4:2β2) | E (gating equilibrium constant), Model-2 (3α4:2β2 nAChR [3]; Model 2, 3α4:2β2) | F (flipping equilibrium constant), Model-2 (3α4:2β2 nAChR [3]; Model 2, 3α4:2β2) | Constant multiplier C (CE / CF) (3α4:2β2 nAChR [3]) | Kd (3α4:2β2 nAChR [3]; [5]) [nM] | Kd (3α4:2β2 nAChR [3]; [6]) [nM] | Decrease of EC50 value by co-application of NS9283 (3α4:2β2 nAChR [1]) [fold] | Increase of maximum response by co-application of NS9283 (3α4:2β2 nAChR [1]) [fold] | Est Pomax (3α4:2β2 nAChR [1]; [7]) | I/I1mM ACh (maximum response normalized to 1 mM ACh) (3α4:2β2 nAChR [1]; 3α4:2β2, ligand alone) [%] | Agonist type (3α4:2β2 nAChR [1]) | I/I1mM ACh (maximum response normalized to 1 mM ACh) (2α4:3β2 nAChR; 2α4:3β2, ligand alone) [%] | Agonist type (2α4:3β2 nAChR) | I/I1mM ACh [4] | Activation of 3α4:2β2^HQT mutant receptors [4] | further results
1 | CC(=O)OCC[N+](C)(C)C [ACh, acetylcholine] | 51 ± 5% | – | – | – | – | – | – | – | – | – | – | – | – | – | – | – | – | Potency of α4-α4 binding site relative to α4-β2 binding site (less potent) (3α4:2β2 nAChR [2]): ~ 100 fold
2 | N#Cc1cccc(-c2nc(-c3cccnc3)no2)c1 [NS9283] | – | – | – | – | – | – | – | – | – | – | – | – | – | – | – | – | – | Constant multiplier C (CE / CF), averaged over Saz-A and TC-2559 (3α4:2β2 nAChR [3]; NS9283 potentiation of Saz-A and TC-2559 activation, averaged): 8.94
3 | OCCCCC#Cc1cncc(OC[C@@H]2CCN2)c1 [Saz-A, Sazetidine-A] | 9.1% and 9 ± 0.7% | 0.50 | 0.10 | 1.99 | 0.05 | 8.7 and 8.75 | 27 | 27 | 2 | 4.4 | 39% and 39 ± 1.5% | 18 ± 1.4 | partial agonists | 108 ± 6 | full agonist | 0* % | do not activate; also recorded: Neither Saz-A or TC-2559 activated | EC50 (3α4:2β2 nAChR [1]; 3α4:2β2, ligand alone, Hill co-efficient of one): 23 nM; EC50 (2α4:3β2 nAChR; 2α4:3β2, ligand alone, Hill co-efficient of one): 10 nM
4 | CCOc1cncc(/C=C/CCNC)c1 [TC-2559] | 20% and 20 ± 2% | 0.28 | 0.27 | 3.59 | 0.08 | 9.2 and 9.15 | 833 | 836 | 3.1 | 2.9 | 59% and 59 ± 1.5% | 41 ±4 | partial agonists | 330 ± 10 | super agonist | 0* % | do not activate; also recorded: Neither Saz-A or TC-2559 activated | Difference of EC50 values between 3α4:2β2 and 2α4:3β2 receptors (3α4:2β2 nAChR [1]; 3α4:2β2 vs 2α4:3β2): 5 fold
